Experimental data published in the supplement of paper PMC8253809.

Tests used:
DIPGX29 [1] = H3.3 K27M diffuse intrinsic pontine glioma line; assay: maximal growth inhibition (yFin) relative to DMSO / staurosporine; higher = more efficacious
Procedure, shortened: (§1)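 Treatment used a pin tool and a 10-point threefold dilution series, mean top concentration 35 μM, run in triplicate on patient-derived pHGG/DIPG cell lines and astrocyte controls in 1% Geltrex-coated 384-well plates. Plates were kept at 37 °C, 5% CO2 for 7 days (iAstro: 3 days). Log2-transformed CellTiter-Glo luminescence was scaled per plate to % activity between negative (solvent) and positive control wells and pooled before fitting. EC50 and maximal response (yFin) came from the three- or four-parameter log-logistic fit chosen by lowest AICc.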

DIPGX37 [2] = H3.3 K27M diffuse intrinsic pontine glioma line; assay: as above
Procedure, shortened: as §1

DIPGX7 [3] = H3.3 K27M diffuse intrinsic pontine glioma line; assay: as above
Procedure, shortened: as §1

DIPGX9 [4] = diffuse intrinsic pontine glioma line; assay: as above
Procedure, shortened: as §1

HABS [5] = astrocyte control; assay: as above
Procedure, shortened: as §1

HGGX2 [6] = paediatric high-grade glioma line; assay: as above
Procedure, shortened: as §1

HGGX39 [7] = paediatric high-grade glioma line; assay: as above
Procedure, shortened: as §1

HGGX42 [8] = H3.3 G34R paediatric high-grade glioma line; assay: as above
Procedure, shortened: as §1

HGGX6 [9] = H3.3 G34R paediatric high-grade glioma line; assay: as above
Procedure, shortened: as §1

SUDIPGIV [10] = diffuse intrinsic pontine glioma line; assay: as above
Procedure, shortened: as §1

SUDIPGVI = diffuse intrinsic pontine glioma line; assay: as above
Procedure, shortened: as §1

SUDIPGXIII [11] = diffuse intrinsic pontine glioma line; assay: as above
Procedure, shortened: as §1

SUDIPGXIX [12] = diffuse intrinsic pontine glioma line; assay: as above
Procedure, shortened: as §1

SUDIPGXVII [13] = diffuse intrinsic pontine glioma line; assay: as above
Procedure, shortened: as §1

SUDIPGXXI [14] = diffuse intrinsic pontine glioma line; assay: as above
Procedure, shortened: as §1

iAstro = astrocyte control; assay: as above
Procedure, shortened: as §1

DIPGX29 [15] = assay: area under dose-response curve of % growth inhibition (log2 RLU vs DMSO / staurosporine), 1e-11 to 1e-4 M (% x log10 M); higher = more growth inhibition
Procedure, shortened: (§2)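 Patient-derived pHGG/DIPG cell lines and astrocytes were plated in 384-well plates coated with 1% Geltrex and treated in triplicate with a 10-point threefold dilution series whose mean top concentration was 35 μM, for 7 days (3 days for iAstro) at 37 °C and 5% CO2. CellTiter-Glo luminescence was log2-transformed and scaled on each plate to % activity between solvent and positive controls. Area under the curve came from the trapezoid rule applied to a fitted log-logistic curve, or to a smoothing spline where the sigmoid fit failed.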

DIPGX37 [16] = assay: as above
Procedure, shortened: as §2

DIPGX7 [17] = assay: as above
Procedure, shortened: as §2

DIPGX9 [18] = assay: as above
Procedure, shortened: as §2

HABS [19] = assay: as above
Procedure, shortened: as §2

HGGX2 [20] = assay: as above
Procedure, shortened: as §2

HGGX39 [21] = assay: as above
Procedure, shortened: as §2

HGGX42 [22] = assay: as above
Procedure, shortened: as §2

HGGX6 [23] = assay: as above
Procedure, shortened: as §2

SUDIPGIV [24] = assay: as above
Procedure, shortened: as §2

SUDIPGXIII [25] = assay: as above
Procedure, shortened: as §2

SUDIPGXIX [26] = assay: as above
Procedure, shortened: as §2

SUDIPGXVII [27] = assay: as above
Procedure, shortened: as §2

SUDIPGXXI [28] = assay: as above
Procedure, shortened: as §2

Compound | maximal growth inhibition (DIPGX29 [1]) | maximal growth inhibition (DIPGX37 [2]) | maximal growth inhibition (DIPGX7 [3]) | maximal growth inhibition (DIPGX9 [4]) | maximal growth inhibition (HABS [5]) | maximal growth inhibition (HGGX2 [6]) | maximal growth inhibition (HGGX39 [7]) | maximal growth inhibition (HGGX42 [8]) | maximal growth inhibition (HGGX6 [9]) | maximal growth inhibition (SUDIPGIV [10]) | maximal growth inhibition (SUDIPGVI) | maximal growth inhibition (SUDIPGXIII [11]) | maximal growth inhibition (SUDIPGXIX [12]) | maximal growth inhibition (SUDIPGXVII [13]) | maximal growth inhibition (SUDIPGXXI [14]) | maximal growth inhibition (iAstro) | area under dose-response curve (DIPGX29 [15]) | area under dose-response curve (DIPGX37 [16]) | area under dose-response curve (DIPGX7 [17]) | area under dose-response curve (DIPGX9 [18]) | area under dose-response curve (HABS [19]) | area under dose-response curve (HGGX2 [20]) | area under dose-response curve (HGGX39 [21]) | area under dose-response curve (HGGX42 [22]) | area under dose-response curve (HGGX6 [23]) | area under dose-response curve (SUDIPGIV [24]) | area under dose-response curve (SUDIPGXIII [25]) | area under dose-response curve (SUDIPGXIX [26]) | area under dose-response curve (SUDIPGXVII [27]) | area under dose-response curve (SUDIPGXXI [28])
CC(C)(C)c1cnc(CSc2cnc(NC(=O)C3CCNCC3)s2)o1 | 84% | 86.8% | 113% | 104% | 45.9% | 57% | 84.8% | 87.2% | 83.9% | 103% | 82.8% | 92.1% | 116% | 95.8% | 110% | 27.2% | 185 | 192 | 208 | 281 | 121 | 130 | 171 | 216 | 151 | 221 | 176 | 245 | 199 | 320
CC(C)c1c2cc(-c3ccnc(NC4CCC(NC5CCOCC5)CC4)n3)ccc2nn1C (stereo not given) | 84.4% | 81.2% | 93.3% | 89.5% | 44.3% | 75.2% | 83.2% | 82% | 78% | 90.4% | 84% | 89.3% | 91.6% | 89.7% | 99.9% | 26.6% | 222 | 225 | 270 | 283 | 135 | 198 | 189 | 252 | 210 | 256 | 249 | 278 | 263 | 319
CC(C)c1cc(C(=O)N2Cc3ccc(CN4CCN(C)CC4)cc3C2)c(O)cc1O | 105% | 92.6% | 78.3% | 94.9% | 108% | 54.4% | 105% | 65% | 34.9% | 56.5% | 51.6% | 51.9% | 77.2% | 67.2% | 105% | 31.4% | 189 | 264 | 125 | 281 | 215 | 145 | 218 | 131 | 92.3 | 152 | 111 | 230 | 164 | 256
COc1cc(F)ccc1-c1ncnc(Nc2cccc(CS(C)(=N)=O)c2)n1 (stereo not given) | 78.9% | 76.2% | 110% | 103% | 56.8% | 57.3% | 68% | 67% | 84.1% | 97.4% | 89.8% | 87% | 100% | 94.9% | 114% | 24.7% | 109 | 128 | 143 | 195 | 104 | 100 | 82.1 | 134 | 121 | 156 | 84.4 | 156 | 109 | 226
Cc1ccc2nc(NCCN)c3ncc(C)n3c2c1 | 88.2% | 86.6% | 92.7% | 98.5% | 58.1% | 45.5% | 57.7% | 83.9% | 81.8% | 91.6% | 70.6% | 73.5% | 85.2% | 88.5% | 117% | 26.6% | 94.6 | 93.7 | 96.7 | 99.8 | 54.2 | 54.2 | 52.5 | 83.7 | 75.1 | 113 | 89.5 | 79.1 | 78.2 | 143
c1ccc2c(-c3cnn4cc(-c5ccc(N6CCNCC6)cc5)cnc34)ccnc2c1 | 95.2% | 99% | 106% | 108% | 108% | 104% | 88.9% | 102% | 92.8% | 107% | 105% | 105% | 113% | 107% | 119% | 93.5% | 165 | 163 | 183 | 202 | 129 | 185 | 147 | 171 | 146 | 171 | 162 | 187 | 172 | 291
COc1ccc(C[C@H](NC(=O)[C@H](C)NC(=O)CN2CCOCC2)C(=O)N[C@@H](Cc2ccccc2)C(=O)C2(C)CO2)cc1 (stereo in doubt) [ONX-0914] | 71.9% | 95.7% | 97.5% | 96.9% | 94.2% | 87.4% | 91.9% | 68% | 92.2% | 89.7% | 85.8% | 89.5% | 95% | 91.8% | 93.9% | 73.5% | 156 | 242 | 220 | 252 | 206 | 277 | 209 | 186 | 182 | 255 | 230 | 245 | 175 | 328
CN(C)C/C=C/C(=O)Nc1cc2c(Nc3ccc(F)c(Cl)c3)ncnc2cc1O[C@H]1CCOC1 [AFATINIB] | 91.2% | 95.5% | 110% | 118% | 101% | 109% | 93.2% | 108% | 93.5% | 111% | 111% | 92.1% | 120% | 109% | 120% | 92.5% | 110 | 116 | 108 | 144 | 102 | 115 | 99.2 | 108 | 86.1 | 90.9 | 85.6 | 123 | 87.7 | 168
O=C(Nc1c[nH]nc1-c1nc2ccc(CN3CCOCC3)cc2[nH]1)NC1CC1 [AT9283] | 108% | 107% | 110% | 109% | 94% | 96.7% | 91.6% | 104% | 97.8% | 99.7% | 101% | 97.8% | 112% | 102% | 114% | 27.5% | 150 | 132 | 143 | 203 | 173 | 87.8 | 186 | 178 | 134 | 167 | 77.4 | 184 | 128 | 310
CC(=O)OC[C@H]1O[C@@H]([S-])[C@H](OC(C)=O)[C@@H](OC(C)=O)[C@@H]1OC(C)=O.CCP(CC)CC.[Au+] [AURANOFIN] | 93.1% | 90.9% | 119% | 118% | 113% | 110% | 107% | 116% | 92.2% | 117% | 114% | 113% | 118% | 117% | 122% | 106% | 232 | 219 | 228 | 209 | 146 | 248 | 165 | 243 | 218 | 198 | 168 | 219 | 169 | 323
COC(=O)[C@]12CCC(C)(C)C[C@H]1[C@H]1C(=O)C=C3[C@@]4(C)C=C(C#N)C(=O)C(C)(C)[C@@H]4CC[C@@]3(C)[C@]1(C)CC2 [BARDOXOLONE METHYL] | 87.1% | 88.6% | 112% | 107% | 105% | 104% | 92.1% | 111% | 86.8% | 122% | 96.1% | 97% | 124% | 109% | 103% | 96.5% | 189 | 185 | 221 | 185 | 174 | 181 | 185 | 203 | 168 | 201 | 155 | 207 | 173 | 231
CC(C)(C)OC(=O)Nc1ccc(-c2cc(C(=O)NCCCCCCC(=O)NO)no2)cc1 [BML-281] | 55.1% | 38.1% | 91.7% | 97.6% | 74.1% | 64% | 84% | 33.3% | 52.9% | 76% | 71.8% | 39% | 85.3% | 58.3% | 104% | 50% | 85.5 | 56.6 | 111 | 146 | 83.1 | 92 | 94.4 | 49 | 55.5 | 104 | 54.5 | 87.7 | 63.9 | 212
